≈ marks a conversion by molar mass, not a printed value. Calls of active or inactive are those of the source. The rule behind the calls is not given here.
Experiments:
[1] = Cytotoxicity against human PBMC assessed as reduction in cell viability
MV4-11 [2] = test: Antiproliferative activity against human MV4-11 cells assessed as reduction in cell viability measured after 3 days by CellTiter-Glo assay; assay type: functional, cell-based; details: for EC50: MV4-11, 72 h
MB004 = test: (§1) Antiproliferative activity against human MB004 cells harboring TP53 mutation at codon 274 GTT-TGT assessed as reduction in cell viability measured after 3 days by CellTiter-Glo assay; assay type: functional, cell-based; details: time 3.0 day
[3] = molecular target: Protein cereblon/DNA damage-binding protein 1 (Homo sapiens, UniProt Q96SW2)
HD-MB03 = test: (§2) Antiproliferative activity against human HD-MB03 cells assessed as reduction in cell viability measured after 3 days by CellTiter-Glo assay; assay type: functional, cell-based; details: time 3.0 day
MHHCALL4 = test: (§3) Antiproliferative activity against human MHHCALL4 cells harboring CRLF2-rearranged JAK2 mutation assessed as reduction in cell viability measured after 3 days by CellTiter-Glo assay; assay type: functional, cell-based; details: time 3.0 day
[4] = Aqueous solubility of the compound incubated for 18 hrs at pH 7.4 by UV spectrum based analysis; assay type: physicochemical
[5] = Apparent permeability of the compound in dog MDCKII-MDR1 cells measured after 1 hr; assay type: ADME, cell-based, Canis lupus familiaris; details: mdck-mdr1, 1 h
[6] = molecular target: Protein cereblon/Eukaryotic peptide chain release factor GTP-binding subunit ERF3A (Homo sapiens, UniProt P15170+Q96SW2); test: PROTAC activity at human CRBN/HiBiT-fused GSPT1 transfected in HEK293T cells assessed as induction of GSPT1 degradation measured after 4 hrs by Nano-Glo HiBiT lytic assay; assay type: cell-based
[7] = molecular target: T1, Protein cereblon/Eukaryotic peptide chain release factor GTP-binding subunit ERF3A (Homo sapiens, UniProt Q96SW2+P15170); details: MV4-11, dose 100.0 nM, time 4.0 hrs
Target sequence in this assay (P15170 whole entry, looked up): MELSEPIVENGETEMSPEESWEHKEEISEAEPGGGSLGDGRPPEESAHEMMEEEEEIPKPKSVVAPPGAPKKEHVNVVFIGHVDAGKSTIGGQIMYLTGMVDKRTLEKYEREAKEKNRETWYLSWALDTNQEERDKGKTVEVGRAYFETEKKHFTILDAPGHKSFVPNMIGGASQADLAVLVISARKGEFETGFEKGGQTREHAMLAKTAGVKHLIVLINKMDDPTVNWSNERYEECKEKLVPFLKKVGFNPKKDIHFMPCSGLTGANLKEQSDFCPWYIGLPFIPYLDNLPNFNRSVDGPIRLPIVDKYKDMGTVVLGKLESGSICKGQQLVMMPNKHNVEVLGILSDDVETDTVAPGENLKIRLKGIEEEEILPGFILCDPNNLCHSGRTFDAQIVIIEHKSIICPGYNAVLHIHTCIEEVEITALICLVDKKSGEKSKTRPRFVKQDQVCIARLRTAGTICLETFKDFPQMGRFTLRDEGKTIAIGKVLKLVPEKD
Target sequence in this assay (Q96SW2 whole entry, looked up): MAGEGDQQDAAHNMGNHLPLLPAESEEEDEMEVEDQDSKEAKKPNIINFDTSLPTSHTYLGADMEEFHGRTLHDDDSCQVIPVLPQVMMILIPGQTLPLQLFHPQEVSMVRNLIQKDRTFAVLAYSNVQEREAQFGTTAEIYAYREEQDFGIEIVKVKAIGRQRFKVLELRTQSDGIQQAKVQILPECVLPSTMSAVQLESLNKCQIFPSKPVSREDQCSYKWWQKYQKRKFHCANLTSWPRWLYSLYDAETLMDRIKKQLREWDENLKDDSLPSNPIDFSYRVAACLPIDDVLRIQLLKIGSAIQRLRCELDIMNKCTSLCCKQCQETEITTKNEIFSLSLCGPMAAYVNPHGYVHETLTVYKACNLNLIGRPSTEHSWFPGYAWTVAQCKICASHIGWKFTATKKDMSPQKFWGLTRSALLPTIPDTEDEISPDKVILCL

[8] = Protein binding in human plasma at 10 uM incubated for 4 hrs by UHPLC-MS/MS analysis; assay type: ADME, cell-free
MV4-11 [9] = test: PROTAC activity at CRBN/SERPINF1 in human MV4-11 cells assessed as induction of SERPINF1degradation at 1 uM measured after 4 hrs by tandem mass tag mass spectrometry analysis; assay type: cell-based
[10] = molecular target: T1, Protein cereblon/Eukaryotic peptide chain release factor GTP-binding subunit ERF3A; details: mhhcall4
Target sequence in this assay (Q96SW2 whole entry): as the sequence (Q96SW2 whole entry, looked up) above
Target sequence in this assay (P15170 whole entry): as the sequence (P15170 whole entry, looked up) above

[11] = Half life in CD-1 mouse liver microsomes measured upto 240 mins in presence of NADPH regenerating system by UHPLC-MS/MS analysis; assay type: ADME, Microsome; details: 4 h
MV4-11 [12] = test: Antiproliferative activity against human MV4-11 cells assessed as reduction in cell viability measured after 3 days in presence of CRBN ligand, lenalidomide by CellTiter-Glo assay; assay type: functional, cell-based; details: time 3.0 day
MV4-11 [13] = assay type: cell-based; details: Homo sapiens, dose 1-10 µM, time 24.0 hrs
[14] = Protein binding in mouse plasma at 10 uM incubated for 4 hrs by UHPLC-MS/MS analysis; assay type: ADME, cell-free
MV4-11 [15] = test: Antiproliferative activity against CRBN knock-out human MV4-11 cells assessed as reduction in cell viability measured after 3 days by CellTiter-Glo assay; assay type: functional, cell-based; details: time 3.0 day
MV4-11 [16] = test: Antiproliferative activity against human MV4-11 cells transfected with FLAG-tagged GSPT1 G575N mutant assessed as reduction in cell viability measured after 3 days by CellTiter-Glo assay; assay type: functional, cell-based; details: time 3.0 day
MV4-11 [17] = test: PROTAC activity at CRBN/GSPT2 in human MV4-11 cells assessed as induction of GSPT2 degradation at 1 uM measured after 4 hrs by tandem mass tag mass spectrometry analysis; assay type: cell-based
Homo sapiens = species: Homo sapiens; test: Induction of His-tagged CRBN/DDB1/biotin-tagged IKZF1 (unknown origin) ternary complex formation incubated for 90 mins by AlphaScreen assay
[18] = as §1; assay type: functional, cell-based; details: MB004, 72 h
MV4-11 [19] = test: Induction of apoptosis in human MV4-11 cells assessed as caspase activation at 10 to 100 nM measured after 8 hrs by luminescent Caspase-Glo assay; assay type: functional, cell-based; details: dose 10-100 nM
[20] = Half life in human liver microsomes measured upto 240 mins in presence of NADPH regenerating system by UHPLC-MS/MS analysis; assay type: ADME, Microsome; details: 4 h
MV4-11 [21] = test: PROTAC activity at CRBN/FLAG-tagged GSPT1 G575N mutant transfected in human MV4-11 cells assessed as induction of GSPT1 mutant degradation at 1 to 10 uM measured after 24 hrs by immunoblot analysis; assay type: cell-based; details: dose 1-10 µM
[22] = as §2; assay type: functional, cell-based; details: HD-MB03, 72 h
[23] = as §3; assay type: functional, cell-based; details: MHHCALL4, 72 h
[24] = molecular target: T1, Protein cereblon/Eukaryotic peptide chain release factor GTP-binding subunit ERF3A; details: MV4-11, dose 100.0 nM, time 24.0 hrs
Target sequence in this assay (P15170 whole entry, looked up): as above
Target sequence in this assay (Q96SW2 whole entry, looked up): as the sequence (Q96SW2 whole entry, looked up) above

MV4-11 [25] = test: Induction of apoptosis in human MV4-11 cells assessed as caspase activation at 10 to 100 nM measured after 24 hrs by luminescent Caspase-Glo assay; assay type: functional, cell-based; details: dose 10-100 nM

Chain of Protein cereblon/DNA damage-binding protein 1 (Q96SW2 whole entry): as the sequence (Q96SW2 whole entry, looked up) above
Chain of Protein cereblon/DNA damage-binding protein 1 (Q16531 whole entry, further chain): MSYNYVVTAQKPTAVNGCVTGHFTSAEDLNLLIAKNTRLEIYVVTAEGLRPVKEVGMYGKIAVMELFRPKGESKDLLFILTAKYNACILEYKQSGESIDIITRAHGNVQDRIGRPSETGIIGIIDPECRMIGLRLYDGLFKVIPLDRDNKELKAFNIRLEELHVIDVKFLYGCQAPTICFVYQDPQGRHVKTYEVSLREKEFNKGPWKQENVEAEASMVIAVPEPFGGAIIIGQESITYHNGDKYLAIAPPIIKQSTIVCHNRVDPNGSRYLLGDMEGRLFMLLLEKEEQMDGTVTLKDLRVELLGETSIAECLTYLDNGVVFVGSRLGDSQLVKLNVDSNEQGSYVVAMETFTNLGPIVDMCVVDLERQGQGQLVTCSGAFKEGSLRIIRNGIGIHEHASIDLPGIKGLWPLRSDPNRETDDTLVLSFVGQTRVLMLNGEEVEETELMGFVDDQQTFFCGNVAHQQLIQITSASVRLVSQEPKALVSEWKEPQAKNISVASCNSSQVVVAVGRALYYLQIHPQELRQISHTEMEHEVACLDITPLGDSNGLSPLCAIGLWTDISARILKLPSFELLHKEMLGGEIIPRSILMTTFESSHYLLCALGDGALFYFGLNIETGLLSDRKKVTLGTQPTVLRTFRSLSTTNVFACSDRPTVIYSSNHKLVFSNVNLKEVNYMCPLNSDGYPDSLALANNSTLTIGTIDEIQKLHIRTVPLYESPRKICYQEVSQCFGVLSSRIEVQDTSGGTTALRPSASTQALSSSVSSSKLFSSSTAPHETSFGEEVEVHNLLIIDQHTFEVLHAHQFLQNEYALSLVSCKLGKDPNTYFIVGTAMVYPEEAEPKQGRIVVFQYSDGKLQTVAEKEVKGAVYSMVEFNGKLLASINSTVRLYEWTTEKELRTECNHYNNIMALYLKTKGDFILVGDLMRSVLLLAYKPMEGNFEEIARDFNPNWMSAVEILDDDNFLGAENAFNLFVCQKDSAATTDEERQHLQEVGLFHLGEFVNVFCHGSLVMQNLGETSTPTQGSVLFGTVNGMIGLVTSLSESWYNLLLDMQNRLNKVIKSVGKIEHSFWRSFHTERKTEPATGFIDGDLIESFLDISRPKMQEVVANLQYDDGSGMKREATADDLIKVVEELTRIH
Chain of Protein cereblon/Eukaryotic peptide chain release factor GTP-binding subunit ERF3A (Homo sapiens, UniProt P15170+Q96SW2) (Q96SW2 whole entry, the tested form may be a part): as the sequence (Q96SW2 whole entry, looked up) above
Chain of Protein cereblon/Eukaryotic peptide chain release factor GTP-binding subunit ERF3A (Homo sapiens, UniProt P15170+Q96SW2) (P15170 whole entry, the tested form may be a part): as the sequence (P15170 whole entry, looked up) above

Row | Structure (SMILES) | Activity [1] | IC50 [3] [nM] | solubility at 18 h [4] [µM] | Papp [5] [×10⁻⁶ cm/s] | EC50 (MV4-11 [2]) [nM] | EC50 [6] [nM] | other results
1 | Cc1ccc(NC(=O)NCc2ccc3c(c2)CN(C2CCC(=O)NC2=O)C3=O)cc1Cl (stereo not given) | Toxic | 18 | – | – | – | – | Activity (MV4-11 [2]; time 3.0 day): Active; Activity (MB004): Active; Activity (HD-MB03): Active; Activity (MHHCALL4): Active
2 | O=C1CCC(N2C(=O)c3ccc(NS(=O)(=O)c4ccccc4C(F)(F)F)cc3C2=O)C(=O)N1 (stereo not given) | – | 337 | 66 (≈ 31.8 µg/mL) | 1.4 | 89 | 52 | –
3 | O=C1CCC(N2C(=O)c3ccc(NS(=O)(=O)c4ccc(OC(F)(F)F)cc4)cc3C2=O)C(=O)N1 (stereo not given) | – | 9 | 76 (≈ 37.8 µg/mL) | 1.1 | > 10000 | > 10000 | –
4 | O=C1CCC(N2C(=O)c3ccc(NS(=O)(=O)c4ccccc4)cc3C2=O)C(=O)N1 (stereo not given) | – | 3 | 71 (≈ 29.4 µg/mL) | 3.6 | > 10000 | > 10000 | –
5 | O=C1CCC(N2C(=O)c3ccc(NS(=O)(=O)c4cccc(Cl)c4)cc3C2=O)C(=O)N1 (stereo not given) | – | 23 | 74 (≈ 33.1 µg/mL) | 1.7 | > 10000 | > 10000 | –
6 | O=C1CCC(N2C(=O)c3ccc(NS(=O)(=O)c4ccccc4OC(F)(F)F)cc3C2=O)C(=O)N1 (stereo not given) | Toxic | – | 67 (≈ 33.3 µg/mL) | 2.3 | 1.5 | – | Emax [7]: 90%; PPB [8]: 99.1%; Activity (MV4-11 [9]): Active; DC50 [10]: Not Active; t1/2 [11]: 4.7 h; Activity (MV4-11 [12]): inactive; Activity (MV4-11 [13]): inactive; PPB [14]: 99.3%; Activity (MV4-11 [15]): inactive; Activity (MV4-11 [16]): inactive; Activity (MV4-11 [17]): Active; Activity (Homo sapiens): inactive; EC50 [18]: 336 nM; Activity (MV4-11 [19]): Active; t1/2 [20]: 5.7 h; Activity (MV4-11 [21]): inactive; EC50 [22]: 3580 nM; EC50 [23]: 0.4 nM
7 | O=C1CCC(N2C(=O)c3ccc(NS(=O)(=O)c4cccc(OC(F)(F)F)c4)cc3C2=O)C(=O)N1 (stereo not given) | – | 10 | 64 (≈ 31.8 µg/mL) | 4 | > 10000 | > 10000 | –
8 | COc1ccccc1S(=O)(=O)Nc1ccc2c(c1)C(=O)N(C1CCC(=O)NC1=O)C2=O (stereo not given) | – | 612 | 85 (≈ 37.7 µg/mL) | 0.6 | > 10000 | > 10000 | –
9 | Cc1ccc(S(=O)(=O)Nc2ccc3c(c2)C(=O)N(C2CCC(=O)NC2=O)C3=O)cc1Cl (stereo not given) | – | 1 | – | 4.6 | > 10000 | > 10000 | –
10 | Cc1c(Cl)cccc1S(=O)(=O)Nc1ccc2c(c1)C(=O)N(C1CCC(=O)NC1=O)C2=O (stereo not given) | Toxic | – | 64 (≈ 29.6 µg/mL) | 3.6 | – | – | Activity (MV4-11 [12]): inactive; Activity (MV4-11 [13]): inactive; Emax [24]: 90%; Activity (MV4-11 [15]): inactive; Activity (MV4-11 [16]): inactive; Activity (Homo sapiens): inactive; EC50 [18]: 1100 nM; Activity (MV4-11 [25]): Active; Activity (MV4-11 [21]): inactive; EC50 [22]: > 8000 nM; EC50 [23]: 4.4 nM
11 | O=C1CCC(N2Cc3cc(CNC(=O)C(F)(F)c4ccc(Cl)cc4)ccc3C2=O)C(=O)N1 (stereo not given) | Toxic | – | 77 (≈ 35.6 µg/mL) | 4.9 | 62 | – | –
12 | Cc1ccccc1S(=O)(=O)Nc1ccc2c(c1)C(=O)N(C1CCC(=O)NC1=O)C2=O (stereo not given) | – | 11 | 84 (≈ 35.9 µg/mL) | 6.8 | 7400 | 9320 | –

Source: ChEMBL document CHEMBL5036322 (J Med Chem, 2021)
